Like-named read-outs stand apart in the source and are kept apart here. Where a SMILES comes first, the peptide text is derived from it. The star is where a group is joined. Myristoyl = CCCCCCCCCCCCCC(=O)*
Experiments:
collagen = settings: cited from earlier work
Laminin = experiment: ELISA assay of laminin synthesis in normal human fibroblasts; format: cell-based; settings: NHF, 72 h
Procedure: (§1) Normal human fibroblasts (NHF) in culture are contacted with the products to be tested or their excipient (negative control) for 72 h. After the contact, the culture supernatants are removed and the synthesis of dermal macromolecules are estimated by ELISA assays. An estimation of cell viability is performed by Hoechst assay and used to weight the obtained data.

Fibronectin = experiment: ELISA assay of fibronectin synthesis in normal human fibroblasts; format: cell-based; settings: NHF, 72 h
Procedure: as §1

neutral lipids = experiment: Marking of neutral lipids with red oil in keratinocytes; format: cell-based, human; settings: for Neutral lipids % variation: red oil marking, human keratinocytes
From the text: (§2) Human keratinocytes are brought to just confluence in KSFMc medium. The contact with the actives and therefore their evaluation is then done in KSFMc medium alone or with calcium (0.8 mm)*. Visual evaluation of differentiation takes place after several days of contact (2, 4, 8 days/3, 5 and 7 for example). * Calcium differentiation allows the creation of link structure between the cells which leads to a better attachment of the basal layers.
On the same cultures as presented before, a marking of neutral lipids with red oil is realised on the fixed layers. Quantification by image analysis is used to estimate lipid synthesis in keratinocytes. A counter-colouration of the nucleus using Hoechst dye is used to weight the obtained data.

Ceramide 2 = Ceramide 2 immunolabeling in keratinocytes; format: cell-based, human; settings: for Ceramide 2 % variation: immunolabeling, human keratinocytes
From the text: as §2
(§3) On the same cultures as those presented before, immunolabeling of filaggrin 1 and ceramides are realised on layers fixed with specific antibodies. Quantification by image analysis is used to estimate the synthesis of these targets in keratinocytes. A counter-colouration of the nucleus using Hoechst dye is used to weight the obtained data.

Collagen I [1] = experiment: ELISA assay of collagen I synthesis in normal human fibroblasts; format: cell-based; settings: NHF, 72 h
Procedure: as §1

filaggrin 1 = experiment: Filaggrin 1 immunolabeling in keratinocytes; format: cell-based, human; settings: for Filagrin 1 % variation: immunolabeling, human keratinocytes
From the text: as §2, §3

Collagen IV = experiment: ELISA assay of collagen IV synthesis in normal human fibroblasts; format: cell-based; settings: NHF, 72 h
Procedure: as §1

Elastin [2] = experiment: Immunofluorescence dosage of elastin in normal human fibroblasts; format: cell-based; settings: NHF, 14 days
Procedure: (§4) Normal human fibroblasts (NHF) are cultured for 24 h. The cells are contacted or not with the products to be tested or their excipient at various concentrations for 6 days for the collagen I or 14 days for elastin (DMEMc 5% FCS). The synthesis of collagen I and elastin produced by the cells in the form of extracellular matrix is then quantified by immuno-marking on the fixed layers. A counting of the nuclei labeled with Hoechst is performed in parallel in order to have an estimate of the viability and in order to weight the data.

Elastin [3] = experiment: ELISA assay of elastin synthesis in normal human fibroblasts; format: cell-based; settings: NHF, 72 h
Procedure: as §1

Collagen I [4] = experiment: Immunofluorescence dosage of collagen I in normal human fibroblasts; format: cell-based; settings: NHF, 6 days
Procedure: as §4

[5] = at the level of the differentiation networks

Asn-Ile-Pro-Pro-Leu (NIPPL) [pentapeptide of WO 2010/071132 derived from fermented milk]
collagen production by fibroblastes with regard to the control (collagen; concentration of about 55 ppm): about +30%

Ile-Pro-Pro-Leu (IPPL) [tetrapeptide of WO 2010/071132 derived from fermented milk]
collagen production by fibroblastes with regard to the control (collagen; concentration of about 44 ppm): about +10%

CCCCCCCCCCCCCC(=O)N1CCC[C@H]1C(=O)N1CCC[C@H]1C(=O)N[C@@H](CC(C)C)C(=O)O [Myr-PPL-OH, myristoyl-prolyl-prolyl-leucine] (Myristoyl-Pro-Pro-Leu-OH)
Laminin % change/control (Laminin; 1 ppm): +29%
Laminin % change/control (Laminin; 3 ppm): +83%
Laminin % change/control (Laminin; 5 ppm): +53%
Laminin % change/control (Laminin; 7 ppm): +41%
Fibronectin % change/control (Fibronectin; 3 ppm): +73%
Fibronectin % change/control (Fibronectin; 5 ppm): +41%
Fibronectin % change/control (Fibronectin; 7 ppm): +66%
Neutral lipids % variation (neutral lipids; 4 ppm): +394 (p < 0.01) %
Neutral lipids % variation (neutral lipids; 6 ppm): +570 (p < 0.01) %
neutral lipids in the human keratinocytes (neutral lipids; [5]): increases
Ceramide 2 % variation (Ceramide 2; 2 ppm): +137 (nsd) %
Ceramide 2 % variation (Ceramide 2; 4 ppm): +240 (p < 0.01) %
Ceramide 2 % variation (Ceramide 2; 6 ppm): +268 (p < 0.01) %
ceramides in the human keratinocytes (Ceramide 2; [5]): increases
Collagen I % change/control (Collagen I [1]; 1 ppm): +34%
Collagen I % change/control (Collagen I [1]; 3 ppm): +59%
Collagen I % change/control (Collagen I [1]; 5 ppm): +87%
Filagrin 1 % variation (filaggrin 1; 2 ppm): +564 (p < 0.01) %
Filagrin 1 % variation (filaggrin 1; 4 ppm): +840 (p < 0.01) %
Filagrin 1 % variation (filaggrin 1; 6 ppm): +172 (p < 0.01) %
filaggrin 1 in the human keratinocytes (filaggrin 1; [5]): increases
Collagen IV % change/control (Collagen IV; 1 ppm): +38%
Collagen IV % change/control (Collagen IV; 3 ppm): +51%
Collagen IV % change/control (Collagen IV; 5 ppm): +83%
Collagen IV % change/control (Collagen IV; 7 ppm): +159%
Elastin % change/control (Elastin [2]; 2 ppm): +183%
Elastin % change/control (Elastin [2]; 3 ppm): +259%
Elastin % change/control (Elastin [2]; 7 ppm): +145%
Elastin % change/control (Elastin [3]; 5 ppm): +86%
Elastin % change/control (Elastin [3]; 7 ppm): +137%
Collagen I % change/control (Collagen I [4]; 3 ppm): +68%
Collagen I % change/control (Collagen I [4]; 7 ppm): +95%

Reference: patent publication US10668000B2, “Peptides, compositions comprising them and uses in particular cosmetic uses” (SEDERMA, priority 2014, dated 2020)
